We go through one compound from patent US20210154162A1, “DRUG AND PHARMACEUTICAL COMPOSITION CONTAINING TRANSPORT PROTEIN INHIBITOR, AND USE” (Institute of Basic Medical Sciences Chinese Academy of …, priority 2018, published 2021).

Molecules are shown by their SMILES.

Experiment [1] relates to PD-1. Description: PD-1 expression in human CD8+ T cells treated with Kyn and AhR inhibitors (flow cytometry). Type of experiment: cell-based. As to conditions: resting and activated CD8+ T cells from healthy donors, breast and lung cancer patients; Kyn 200 μM, 48 h. The procedure:
(4) CD8^+ T cells isolated from PBMCs of patients with breast cancer or lung cancer were activated by anti-CD3/CD28 beads and treated with PBS, Kyn (200 μM) or Kyn/DMF (20 μM) for 48 h. The expression of PD-1 was determined by flow cytometry.
(5) CD8^+ T cells isolated from patients with breast cancer or lung cancer were treated with DMF (20 μM) for 48 h. PD-1 expression was determined by flow cytometry (n=6).

For experiment [2], the system named is PD-1. Description: PD-1 expression in resting CD8+ T cells treated with Kyn (flow cytometry). Type of experiment: cell-based, mouse. The procedure:
(1) CD8^+ T cells were treated with Kyn (200 μM) for the time periods. The expression of PD-1 was determined by flow cytometry.
(In general: A flow cytometer gives signals particle by particle.)

Experiment [3] concerns AhR. Nature of the experiment: AhR translocation in human peripheral CD8+ T cells. Type of experiment: cell-based. As to conditions: resting and activated peripheral CD8+ T cells from breast and lung cancer patients, Kyn treatment.
Experiment [4] relates to B16 melanoma. Nature of the experiment: B16 melanoma-bearing C57BL/6 mice treated with Kyn, DMF or Kyn+DMF. It is filed as in vivo, mouse. On the procedure: (9) C57BL/6 mice with 5×5 mm B16 melanoma were treated with PBS, Kyn (50 μg/mouse, i.p., once every two days), DMF (5 μg/mouse, o.t., once every day) or Kyn+DMF for 6 days. PD-1 expression in CD8^+ T cells isolated from tumors was determined by flow cytometry (n=5). (14) The experimental steps were the same as those of step (9), except that the tumors were weighed. The weighing results were as shown in FIG. 6P. *p<0.05, **p<0.01; #p<0.05, ##p<0.01, as compared with CTL group. The data represented mean±SEM.

The subject of experiment [5] is OT-1 CD8^+ T cells. Nature of the experiment: IFN-γ expression of OT-1 CD8+ T cells co-cultured with OVA-peptide loaded APCs. It is filed as cell-based, mouse. Particulars: OT-1 CD8+ T cells pretreated with Kyn 200 μM 72 h, upon PD-1 blockade. On the procedure:
(10) Splenic APCs pulsed with OVA257-264 (2 μg/ml) were co-cultured with OT-1 CD8^+ T cells in the presence of IgG or anti-PD-1 neutralizing antibody (10 μg/ml) for 72 h. IFN-γ expression was measured by flow cytometry (left). Or, CD8^+ T cells from OT-1 mice were treated with Kyn (200 μM) for 72 h, then co-cultured with OVA-peptide loaded APCs and treated with or without anti-PD-1 neutralizing antibody for 72 h (right). The data represented mean±SEM.

Experiment [6] concerns AhR. Description: AhR localisation and expression in CD8+ T cells (confocal microscopy, western blot). Type of experiment: cell-based, mouse. Particulars: 48 h. On the procedure:
(1) CD8^+ T cells isolated from spleen were stimulated with 200 μM Kyn or Kyn+anti-CD3/CD28 beads for 48 h. CD8^+ T cells were fixed, stained with an anti-AhR antibody and imaged by confocal microscopy. Bar, […]. (2) The experimental steps were the same as those of step (1), except that the cytoplasmic and nuclear protein fractions were seperated prior to the western blot analysis of AhR. The intensity relative to that in the resting/Kyn group was calculated. (3) Western blot analysis of AhR expression in both resting CD8^+ T cells and anti-CD3/CD28 bead-activated CD8^+ T cells treated with PBS or Kyn (200 μM) for 48 h was carried out. AhR ratio of Nuc/Cyt was calculated relative to that in the Kyn (−) group.

Experiment [7] relates to PD-1. Description: PD-1 expression in anti-CD3/CD28 bead-activated CD8+ T cells treated with Kyn or other tryptophan metabolites (flow cytometry). It is filed as cell-based, mouse. Particulars: Kyn at different concentrations; 200 μM for different time periods; anti-CD3/CD28 microbeads. The procedure:
(4) The isolated splenic CD8^+ T cells were incubated with anti-CD3/CD28 beads in the presence of different concentrations of Kyn. PD-1 expression was determined by flow cytometry.
(5) The experimental steps were the same as those of step (4), except that CD8^+ T cells were treated with 200 μM Kyn for different time periods as shown in FIG. 2E.
(6) Anti-CD3/CD28 bead-activated CTLs were treated with PBS, 200 μM Kyn or other metabolites (500 μM) from the tryptophan pathway (melatonin, kynurinic acid and indoxyle sulphate). After 24 h, PD-1 expression was determined by flow cytometry.

Experiment [8] concerns CD8^+ T cells. Nature of the experiment: Essential amino acids in the cytosol of activated CD8+ T cells (LC-QE-MS). Type of experiment: cell-based. Particulars: 48-hour Kyn treatment.
Source text: Regarding the antiport function in many transport systems, the inventors additionally analyzed the influence of SLC7A8 and PAT4 on the transport of other essential amino acids. After 48-hour treatment with or without Kyn, anti-CD3/CD28 bead-activated CD8^+ T cells were used to analyze essential amino acids in the cytosol by LC-QE-MS.
Experiment [9] relates to PD-1. Nature of the experiment: Effect of SAR and BCH on PD-1 expression in human peripheral blood CD8+ T cells (flow cytometry). It is filed as cell-based. As to conditions: breast cancer patients, 200 μM Kyn, 48 h. On the procedure: Mononuclear cells were isolated and obtained from the peripheral whole blood of breast cancer patients by using Ficoll. CD8^+ T cells were sorted by magnetic beads, and seeded into a U-shaped bottom 96-well plate (100000 cells/well) while anti-CD3/CD28 magnetic beads were added to activate T cells. The culture medium was RPMI-1640 added with 10 ng/mL human IL-2. Cells were grouped and treated with drugs as follows.
Control group 1 (PBS): culture medium+PBS;
Experimental group 2 (Kyn): culture medium+200 μM Kyn;
Experimental group 3 (Kyn+SAR): culture medium+200 μM Kyn+10 mM SAR; Experimental group 4 (Kyn+BCH): culture medium+200 μM Kyn+100 μM BCH;
The expression level of PD-1 in CD8^+ T cells of each group was determined by flow cytometry after 48 h.

The subject of experiment [10] is PAT4 and SLC7A8. Description: PAT4 and SLC7A8 expression in activated CD8+ T cells (real-time PCR, immunostaining). It is filed as cell-based, mouse. Particulars: activated CD8+ T cells, Kyn 200 μM, 24 h. On the procedure: (2) Activated CD8^+ T cells were treated with PBS or Kyn (200 μM) for 24 h. The expression of PAT4 and SLC7A8 was determined by real-time PCR (left) and immunostaining (right). Bar, […].
(6) The mRNA expression of PAT4 and SLC7A8 was determined in activated CD8^+ T cells treated with PBS, Kyn, Kyn/CH-223191 (10 μM) or Kyn/DMF (20 μM) for 48 h.

For `Nc1ccccc1C(=O)CC(N)C(=O)O` (stereo not shown) [Kyn, kynurenine], the PD-1 expression entry in experiment [1] was “upregulated”; in [2] (Kyn alone 200 μM), “enough to upregulate PD-1”; in [7], “markedly upregulated”. In experiment [2] (Kyn alone), the “time point of initial increase of PD-1” value turned out to be 48 h. Further, the AhR localisation entry in experiment [3] is reported as “promoted the translocation of AhR from the cytosol to nucleus”; in experiment [6] (activated T cells, 200 μM Kyn), “translocation of cytoplasmic AhR to the nucleus”. Further, the “PD-1 expression in CD8+ T cells isolated from tumor, spleen or lymph nodes” value in experiment [4] (Kyn 50 μg/mouse i.p. once every two days, 6 days) was “upregulate”. The “tumor growth (tumors weighed)” value in experiment [4] (Kyn-treatment) is reported as “accelerated tumor growth”. Besides, the “production of IFN-γ” value in [5] is “upregulated”. Besides, the AhR expression result in experiment [6] (resting T cells, Kyn 200 μM, further increased in activated T cells) is reported as “upregulated”. In addition, the “essential amino acids in the cytosol” value in [8] was “had no effect on most of the essential amino acids except some decrease of the intensity of threonine”. Further, the “PD-1 expression in peripheral blood CD8+ T cells” value in experiment [9] is “significant increased”. In addition, in experiment [10], the “expression of SLC7A8 and PAT4” value is “strikingly resulted in the upregulation”.
